# Data published in US20240139129A1, “NOVEL METHOD AND AGENT FOR TREATING, DIAGNOSING AND DETECTING DIABETES AND COMPLICATIONS” (Biozipcode, Inc., priority 2021, published 2024).
# Tested on: diabetic patients (type 1 and type 2 diabetes mellitus)
# Test: Research Plan 2: therapy of diabetes mellitus targeting bone marrow-derived abnormal hematopoietic stem cell in patients
# Assay type: in vivo, human
# Settings: type 1 and type 2 diabetic patients, 12 weeks therapy
substance,measurement,value
insulin: insulin therapy alone for three months (control group) in the human research plan,(A) effect of eliminating abnormal hematopoietic stem cells,not eliminated
same,(B) effect of healing diabetes mellitus,not observed
same,(C) therapeutic effect on a complication,observed to some extent
